The record followed here is US8796268B2, “Heteroaryls and uses thereof” (Millennium Pharmaceuticals, Inc., priority 2010, dated 2014).

Holding throughout (assay type): biochemical
For one assay, the target named is T1, Human PI3K gamma (Homo sapiens, UniProt P48736).
T1 construct: His (N); host or cells: SF9 insect cells (baculovirus)
Nature of the assay: Human PI3K gamma enzyme assay (HTRF). Conditions: concentration not given, b1389 states 1.0 μM for PI3K δ and γ; for inhibition at 1 µM: read-out: p110 gamma Percent Inhibition. An outline of the steps: (§1)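 Compounds were mixed with 25 uM ATP, then with 3.5 uM di-C8 PI(4,5)P2 and His-tagged PI3K isoform (β 5.25 nM, δ 0.75 nM, γ 5 nM) at pH 7.00. After 30 min at room temperature, EDTA stopped the reaction and PIP3 was measured by HTRF over 1 h.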

For the next assay, the target named is T2, Human PI3K alpha (Homo sapiens, UniProt P42336).
T2 construct: His (N); host or cells: SF9 insect cells (baculovirus)
Put plainly: Human PI3K alpha enzyme assay (HTRF). Conditions: concentration not given, b1387 states 1.1 μM for PI3K α and β; for inhibition at 1.1 µM: read-out: p110 alpha Percent Inhibition.

In a further assay the target is T3, Human PI3K beta (Homo sapiens, UniProt P42338).
T3 construct: His (N); host or cells: SF9 insect cells (baculovirus)
Put plainly: Human PI3K beta enzyme assay (HTRF). Conditions: concentration not given, b1387 states 1.1 μM for PI3K α and β; for inhibition at 1.1 µM: read-out: p110 beta Percent Inhibition. An outline of the steps:
as §1

For a further assay, the target named is T4, Human PI3K delta (Homo sapiens, UniProt O00329).
T4 construct: His (N); host or cells: SF9 insect cells (baculovirus)
Nature of the assay: Human PI3K delta enzyme assay (HTRF). Conditions: concentration not given, b1389 states 1.0 μM for PI3K δ and γ; for inhibition at 1 µM: read-out: p110 delta Percent Inhibition. The procedure, abridged: as §1

T1 sequence (P48736 whole entry): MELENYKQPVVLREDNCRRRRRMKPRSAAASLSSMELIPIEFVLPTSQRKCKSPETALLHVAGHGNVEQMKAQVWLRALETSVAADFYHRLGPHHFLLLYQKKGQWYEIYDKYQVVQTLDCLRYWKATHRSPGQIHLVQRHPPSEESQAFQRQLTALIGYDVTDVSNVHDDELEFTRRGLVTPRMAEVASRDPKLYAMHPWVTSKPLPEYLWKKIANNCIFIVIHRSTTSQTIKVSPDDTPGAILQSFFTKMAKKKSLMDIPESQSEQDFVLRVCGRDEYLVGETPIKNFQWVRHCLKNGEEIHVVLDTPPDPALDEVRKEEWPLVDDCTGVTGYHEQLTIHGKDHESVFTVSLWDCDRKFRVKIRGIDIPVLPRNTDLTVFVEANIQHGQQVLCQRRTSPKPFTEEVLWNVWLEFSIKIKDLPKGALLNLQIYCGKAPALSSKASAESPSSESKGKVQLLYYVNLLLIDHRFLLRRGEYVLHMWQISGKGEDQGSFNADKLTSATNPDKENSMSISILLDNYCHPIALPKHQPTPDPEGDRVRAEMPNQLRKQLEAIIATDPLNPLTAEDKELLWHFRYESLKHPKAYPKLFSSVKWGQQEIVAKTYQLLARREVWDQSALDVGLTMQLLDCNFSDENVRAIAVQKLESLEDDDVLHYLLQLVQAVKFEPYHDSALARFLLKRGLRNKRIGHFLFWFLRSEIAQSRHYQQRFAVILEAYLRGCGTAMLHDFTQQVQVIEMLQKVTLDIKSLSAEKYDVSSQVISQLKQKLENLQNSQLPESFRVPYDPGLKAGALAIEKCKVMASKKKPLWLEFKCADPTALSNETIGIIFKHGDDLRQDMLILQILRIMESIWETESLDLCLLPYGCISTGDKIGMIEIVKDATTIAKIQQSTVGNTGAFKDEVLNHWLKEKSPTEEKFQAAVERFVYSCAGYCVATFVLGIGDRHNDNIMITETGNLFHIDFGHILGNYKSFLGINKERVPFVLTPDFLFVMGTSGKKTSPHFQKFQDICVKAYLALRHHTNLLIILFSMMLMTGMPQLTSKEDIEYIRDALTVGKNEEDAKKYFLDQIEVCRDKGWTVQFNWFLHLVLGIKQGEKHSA
T4 sequence (O00329 whole entry): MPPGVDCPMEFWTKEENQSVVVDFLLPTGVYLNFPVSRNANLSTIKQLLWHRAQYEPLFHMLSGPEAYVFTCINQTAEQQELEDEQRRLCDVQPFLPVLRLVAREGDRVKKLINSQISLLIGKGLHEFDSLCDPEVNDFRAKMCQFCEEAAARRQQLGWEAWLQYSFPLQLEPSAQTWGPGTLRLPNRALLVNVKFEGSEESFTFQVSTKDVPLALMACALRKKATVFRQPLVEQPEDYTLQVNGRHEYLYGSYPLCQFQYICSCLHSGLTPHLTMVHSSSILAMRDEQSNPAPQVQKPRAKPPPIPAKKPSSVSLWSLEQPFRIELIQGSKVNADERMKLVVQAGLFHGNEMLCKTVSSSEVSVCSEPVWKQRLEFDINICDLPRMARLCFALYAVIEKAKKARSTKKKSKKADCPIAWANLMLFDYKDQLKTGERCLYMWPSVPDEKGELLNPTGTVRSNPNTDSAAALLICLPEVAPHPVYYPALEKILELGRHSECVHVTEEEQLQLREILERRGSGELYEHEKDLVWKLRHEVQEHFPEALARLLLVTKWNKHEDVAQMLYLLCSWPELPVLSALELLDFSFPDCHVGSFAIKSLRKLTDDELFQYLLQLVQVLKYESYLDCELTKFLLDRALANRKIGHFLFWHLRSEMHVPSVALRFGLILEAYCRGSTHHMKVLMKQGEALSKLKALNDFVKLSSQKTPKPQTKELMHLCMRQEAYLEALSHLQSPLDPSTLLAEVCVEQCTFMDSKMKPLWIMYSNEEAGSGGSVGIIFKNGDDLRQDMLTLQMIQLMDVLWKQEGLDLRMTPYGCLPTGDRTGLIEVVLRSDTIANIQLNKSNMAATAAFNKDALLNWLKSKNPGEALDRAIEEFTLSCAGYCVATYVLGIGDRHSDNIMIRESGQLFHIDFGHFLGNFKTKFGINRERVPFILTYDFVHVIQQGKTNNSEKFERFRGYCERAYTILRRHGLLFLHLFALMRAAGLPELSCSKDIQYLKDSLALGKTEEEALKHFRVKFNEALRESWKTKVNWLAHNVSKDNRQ
T4 sequence (P27986 whole entry partner): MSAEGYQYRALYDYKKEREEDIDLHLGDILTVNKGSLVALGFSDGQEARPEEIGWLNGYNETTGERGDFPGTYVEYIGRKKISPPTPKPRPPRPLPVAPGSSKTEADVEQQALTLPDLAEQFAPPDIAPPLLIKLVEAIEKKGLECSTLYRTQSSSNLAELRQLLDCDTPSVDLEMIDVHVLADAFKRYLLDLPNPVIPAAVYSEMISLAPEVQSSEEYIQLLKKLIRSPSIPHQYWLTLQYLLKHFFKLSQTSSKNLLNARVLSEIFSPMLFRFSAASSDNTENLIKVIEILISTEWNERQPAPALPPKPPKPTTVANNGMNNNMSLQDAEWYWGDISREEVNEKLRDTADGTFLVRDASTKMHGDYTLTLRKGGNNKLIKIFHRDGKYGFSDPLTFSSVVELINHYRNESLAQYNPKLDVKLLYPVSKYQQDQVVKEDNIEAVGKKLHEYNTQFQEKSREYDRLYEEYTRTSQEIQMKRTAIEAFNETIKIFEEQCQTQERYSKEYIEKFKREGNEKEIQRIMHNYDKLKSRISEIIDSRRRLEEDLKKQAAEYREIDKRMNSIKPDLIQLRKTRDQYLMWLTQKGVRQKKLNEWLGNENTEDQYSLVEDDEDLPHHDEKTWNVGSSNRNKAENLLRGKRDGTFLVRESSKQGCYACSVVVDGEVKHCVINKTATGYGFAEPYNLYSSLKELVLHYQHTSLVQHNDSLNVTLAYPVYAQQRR
T2 sequence (P42336 whole entry): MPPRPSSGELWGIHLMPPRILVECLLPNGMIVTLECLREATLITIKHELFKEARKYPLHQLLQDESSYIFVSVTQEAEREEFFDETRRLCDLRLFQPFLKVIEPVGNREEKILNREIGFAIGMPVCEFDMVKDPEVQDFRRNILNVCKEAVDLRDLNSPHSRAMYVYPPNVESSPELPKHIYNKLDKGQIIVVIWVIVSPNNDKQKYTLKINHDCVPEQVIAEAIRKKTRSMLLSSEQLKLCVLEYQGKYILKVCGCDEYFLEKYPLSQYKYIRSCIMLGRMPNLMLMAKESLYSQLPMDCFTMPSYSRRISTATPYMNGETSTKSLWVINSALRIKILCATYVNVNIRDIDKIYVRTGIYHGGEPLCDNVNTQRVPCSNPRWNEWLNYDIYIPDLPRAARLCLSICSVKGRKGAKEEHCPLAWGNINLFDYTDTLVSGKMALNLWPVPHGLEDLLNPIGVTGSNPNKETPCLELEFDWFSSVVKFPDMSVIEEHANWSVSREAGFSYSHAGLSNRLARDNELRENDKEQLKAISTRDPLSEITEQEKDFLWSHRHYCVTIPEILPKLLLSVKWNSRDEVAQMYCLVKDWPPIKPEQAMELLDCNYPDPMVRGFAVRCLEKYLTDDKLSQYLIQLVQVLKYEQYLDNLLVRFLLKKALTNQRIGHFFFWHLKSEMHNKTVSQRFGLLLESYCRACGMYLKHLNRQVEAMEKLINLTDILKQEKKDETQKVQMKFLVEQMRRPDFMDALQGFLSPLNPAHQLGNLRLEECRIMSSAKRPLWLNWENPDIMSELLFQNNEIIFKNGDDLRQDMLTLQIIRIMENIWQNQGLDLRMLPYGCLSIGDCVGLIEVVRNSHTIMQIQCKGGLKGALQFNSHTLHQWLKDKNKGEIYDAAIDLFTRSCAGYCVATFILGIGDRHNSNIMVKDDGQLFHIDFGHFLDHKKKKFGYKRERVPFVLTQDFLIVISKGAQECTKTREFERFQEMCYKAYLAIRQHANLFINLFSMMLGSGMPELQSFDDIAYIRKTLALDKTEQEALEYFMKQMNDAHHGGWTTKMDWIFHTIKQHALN
T2 sequence (P27986 whole entry partner): as the sequence (P27986 whole entry partner) above
T3 sequence (P42338 whole entry): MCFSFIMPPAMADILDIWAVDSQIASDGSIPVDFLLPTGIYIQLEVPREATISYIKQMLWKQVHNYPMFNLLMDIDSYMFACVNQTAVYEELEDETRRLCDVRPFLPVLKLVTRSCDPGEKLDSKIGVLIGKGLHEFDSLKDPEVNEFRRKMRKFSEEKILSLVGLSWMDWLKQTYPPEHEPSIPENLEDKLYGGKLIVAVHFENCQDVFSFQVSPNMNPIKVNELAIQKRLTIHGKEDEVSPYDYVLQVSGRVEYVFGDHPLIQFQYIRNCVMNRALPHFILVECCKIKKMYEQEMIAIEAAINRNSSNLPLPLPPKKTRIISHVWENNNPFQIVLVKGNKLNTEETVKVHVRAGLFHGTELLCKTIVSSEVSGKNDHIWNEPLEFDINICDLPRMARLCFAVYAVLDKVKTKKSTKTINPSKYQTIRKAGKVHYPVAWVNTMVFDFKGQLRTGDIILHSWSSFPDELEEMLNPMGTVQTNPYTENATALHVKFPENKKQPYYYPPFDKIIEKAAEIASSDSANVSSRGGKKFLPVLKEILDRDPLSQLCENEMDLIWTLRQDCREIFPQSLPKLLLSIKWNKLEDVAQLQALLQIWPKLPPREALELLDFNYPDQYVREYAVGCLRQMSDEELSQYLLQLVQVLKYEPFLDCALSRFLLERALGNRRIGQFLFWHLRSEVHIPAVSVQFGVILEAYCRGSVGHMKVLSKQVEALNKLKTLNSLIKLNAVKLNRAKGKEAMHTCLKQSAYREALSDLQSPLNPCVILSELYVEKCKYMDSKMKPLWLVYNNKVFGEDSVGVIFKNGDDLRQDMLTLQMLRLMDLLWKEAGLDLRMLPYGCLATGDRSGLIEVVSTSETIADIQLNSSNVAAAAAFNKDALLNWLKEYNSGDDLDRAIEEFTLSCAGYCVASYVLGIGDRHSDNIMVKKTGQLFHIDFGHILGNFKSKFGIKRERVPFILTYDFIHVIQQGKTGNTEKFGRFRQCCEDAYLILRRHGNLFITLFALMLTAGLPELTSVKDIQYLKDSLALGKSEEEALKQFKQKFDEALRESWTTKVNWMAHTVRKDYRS
T3 sequence (P27986 whole entry partner): as the sequence (P27986 whole entry partner) above

For `CC(=O)Nc1cc(-c2nc(C(c3ccc(Cl)cc3)N3CCNCC3)c(-c3nnc[nH]3)s2)ccn1` (centres unmarked) [Compound 229], the inhibition at 1 µM on Human PI3K gamma turned out to be 16%; on Human PI3K delta, 106%. The inhibition at 1.1 µM amounted to 62% at Human PI3K alpha and 105% on Human PI3K beta.

Take `CC(=O)Nc1cc(-c2cc(C(c3ccc(Cl)cc3)N3CCCC3)c(-c3nnc[nH]3)s2)ccn1` (centres unmarked) [Compound 230]: the inhibition at 1 µM at Human PI3K gamma amounted to 29%; on Human PI3K delta, 102%. Also, the inhibition at 1.1 µM at Human PI3K alpha came out at 57%; on Human PI3K beta, 93%.

Turning to `OC(c1ccc(Br)cc1)c1cc(-c2ccncc2)sc1-c1nnc[nH]1` (centres unmarked) [Compound 231], the inhibition at 1 µM was 47% on Human PI3K gamma and 77% on Human PI3K delta. Further, the inhibition at 1.1 µM at Human PI3K alpha was found to be 34%; on Human PI3K beta, 104%.

Turning to `OC(c1ccc(Cl)c(F)c1)c1cc(-c2ccncc2)sc1-c1nnc[nH]1` (centres unmarked) [Compound 232], the values for the inhibition at 1 µM on Human PI3K gamma and at Human PI3K delta were 26% and 67%, respectively. Also, the inhibition at 1.1 µM is 38% on Human PI3K alpha and 105% on Human PI3K beta.

For the compound `CC(=O)Nc1cc(-c2cc(C(NCC3CCNC3)c3ccc(Cl)cc3)c(-c3nnc[nH]3)s2)ccn1` (centres unmarked) [Compound 234], the figures for the inhibition at 1 µM on Human PI3K gamma and on Human PI3K delta were 10% and 104%, respectively. The inhibition at 1.1 µM was determined as 60% at Human PI3K alpha and 100% at Human PI3K beta.

For `OC(c1cc(-c2ccncc2)sc1-c1nnc[nH]1)c1cccc(F)c1F` (centres unmarked) [Compound 235], the inhibition at 1 µM on Human PI3K gamma came to 17%; at Human PI3K delta, 66%. The inhibition at 1.1 µM at Human PI3K alpha came to 65%; at Human PI3K beta, 101%.

Consider `OC(c1ccc(-c2cncnc2)cc1)c1cc(-c2ccncc2)sc1-c1nnc[nH]1` (centres unmarked) [Compound 236], for which the inhibition at 1 µM at Human PI3K gamma is 10%; at Human PI3K delta, 48%. Moreover, the figures for the inhibition at 1.1 µM at Human PI3K alpha and on Human PI3K beta were 11% and 53%, respectively.

For the compound `CC(=O)Nc1cc(-c2nc(C(O)c3ccc(Cl)cc3)c(-c3nnc[nH]3)s2)ccn1` (centres unmarked) [Compound 238], the inhibition at 1 µM was found to be 11% on Human PI3K gamma and 96% on Human PI3K delta. For the same compound, the inhibition at 1.1 µM at Human PI3K alpha stood at 72%; at Human PI3K beta, 88%.

For the compound `COc1cccc(F)c1C(O)c1cc(-c2ccncc2)sc1-c1nnc[nH]1` (centres unmarked) [Compound 239], the inhibition at 1 µM on Human PI3K gamma was found to be 27%; on Human PI3K delta, 41%. For the same compound, the inhibition at 1.1 µM at Human PI3K alpha came out at 30%; on Human PI3K beta it was 68%.

For the compound `CC(=O)Nc1cc(-c2cc(C(NCC3CCCC3)c3ccc(Cl)cc3)c(-c3nnc[nH]3)s2)ccn1` (centres unmarked) [Compound 240], the inhibition at 1 µM worked out at 8% on Human PI3K gamma and 98% on Human PI3K delta. Also, the inhibition at 1.1 µM on Human PI3K alpha turned out to be 52%; on Human PI3K beta it was 79%.

Turning to `CC(=O)Nc1cc(-c2cc(C(OC[C@@H]3CCCN3)c3ccc(Cl)cc3)c(-c3nnc[nH]3)s2)ccn1` (some centres unmarked) [Compound 242], the inhibition at 1 µM at Human PI3K gamma was 36%; on Human PI3K delta, 112%. Moreover, the inhibition at 1.1 µM was 81% on Human PI3K alpha and 104% on Human PI3K beta.

For the compound `CCN(CC)C(c1ccc(Cl)cc1)c1cc(-c2ccnc(Cl)c2)sc1-c1nnc[nH]1` (centres unmarked) [Compound 243], the inhibition at 1 µM on Human PI3K gamma worked out at 4%; on Human PI3K delta, 45%. In addition, the inhibition at 1.1 µM on Human PI3K alpha was found to be 12%; at Human PI3K beta, 66%.

With `CC(=O)Nc1cc(-c2cc(C(NC(C)C)c3ccc(Cl)cc3)c(-c3nnc[nH]3)s2)ccn1` (centres unmarked) [Compound 244], the inhibition at 1 µM is 14% at Human PI3K gamma and 101% on Human PI3K delta. Moreover, the inhibition at 1.1 µM at Human PI3K alpha was determined as 77%; on Human PI3K beta it was 101%.

On to `COc1ccc(C(O)c2cc(-c3ccncc3)sc2-c2nnc[nH]2)cc1OC` (centres unmarked) [Compound 246], for which the inhibition at 1 µM came out at 8% on Human PI3K gamma and 43% on Human PI3K delta. For the same compound, the inhibition at 1.1 µM stood at 15% at Human PI3K alpha and 81% on Human PI3K beta.

For the compound `CC(=O)Nc1cc(-c2cc(C(c3ccc(Cl)cc3)N3CC4(COC4)C3)c(-c3nnc[nH]3)s2)ccn1` (centres unmarked) [Compound 247], the results for the inhibition at 1 µM at Human PI3K gamma and on Human PI3K delta were 21% and 104%, respectively. Moreover, the figures for the inhibition at 1.1 µM at Human PI3K alpha and on Human PI3K beta were 83% and 105%, respectively.

In the case of `CC(=O)Nc1cc(-c2cc(C(c3ccc(Cl)cc3)N3CCOCC3)c(-c3nnc[nH]3)s2)ccn1` (centres unmarked) [Compound 248], the inhibition at 1 µM on Human PI3K gamma came out at 35%; at Human PI3K delta, 109%. For the same compound, the values for the inhibition at 1.1 µM at Human PI3K alpha and at Human PI3K beta were 89% and 106%, respectively.

For `Clc1ccc(C(c2cc(-c3ccnc(Cl)c3)sc2-c2nnc[nH]2)N2CCC2)cc1` (centres unmarked) [Compound 251], the values for the inhibition at 1 µM at Human PI3K gamma and on Human PI3K delta were 12% and 44%, respectively. The inhibition at 1.1 µM worked out at 14% at Human PI3K alpha and 96% on Human PI3K beta.

For `OC(c1ccc(-c2ncccn2)cc1)c1cc(-c2ccncc2)sc1-c1nnc[nH]1` (centres unmarked) [Compound 252], the inhibition at 1 µM at Human PI3K gamma is 12%; at Human PI3K delta it was 60%. Besides, the inhibition at 1.1 µM came to 58% on Human PI3K alpha and 85% on Human PI3K beta.

`Nc1cc(-c2cc(C(c3ccc(Cl)cc3)N3CCNCC3)c(-c3nnc[nH]3)s2)ccn1` (centres unmarked) [Compound 254]: the inhibition at 1 µM was 8% on Human PI3K gamma and 91% on Human PI3K delta. In addition, the results for the inhibition at 1.1 µM at Human PI3K alpha and on Human PI3K beta were 49% and 96%, respectively.

Consider `NCc1c[nH]c(-c2sc(-c3ccncc3)nc2Cc2ccc(Cl)cc2)n1` [Compound 255, (2-(4-(4-chlorobenzyl)-2-(pyridin-4-yl)thiazol-5-yl)-1H-imidazol-4-yl)methanamine], for which the “p110 gamma Percent Inhibition” value at Human PI3K gamma is given as 5%. Besides, at Human PI3K alpha, the “p110 alpha Percent Inhibition” value is listed as 0%. The “p110 beta Percent Inhibition” value at Human PI3K beta came to 55%. Moreover, the “p110 delta Percent Inhibition” value at Human PI3K delta worked out at 39%.

For the compound `OC(c1ccc2c(c1)OCO2)c1cc(-c2ccncc2)sc1-c1nnc[nH]1` (centres unmarked) [Compound 256], the inhibition at 1 µM at Human PI3K gamma was found to be 8%; at Human PI3K delta it was 57%. In addition, the inhibition at 1.1 µM at Human PI3K alpha is 25%; at Human PI3K beta, 87%.

As to `OC(c1ccc2ncccc2c1)c1cc(-c2ccncc2)sc1-c1nnc[nH]1` (centres unmarked) [Compound 257], the inhibition at 1 µM at Human PI3K gamma came out at 30%; at Human PI3K delta, 68%. For the same compound, the inhibition at 1.1 µM on Human PI3K alpha is 31%; at Human PI3K beta, 97%.

As for `OC(c1cccc(-c2ccncc2)c1)c1cc(-c2ccncc2)sc1-c1nnc[nH]1` (centres unmarked) [Compound 258], the results for the inhibition at 1 µM on Human PI3K gamma and at Human PI3K delta were 13% and 47%, respectively. The inhibition at 1.1 µM on Human PI3K alpha was 18%; on Human PI3K beta, 86%.

Take `OC(c1ccc(Br)o1)c1cc(-c2ccncc2)sc1-c1nnc[nH]1` (centres unmarked) [Compound 260]: the inhibition at 1 µM was 6% at Human PI3K gamma and 37% on Human PI3K delta. Also, the inhibition at 1.1 µM on Human PI3K alpha was determined as 37%; on Human PI3K beta, 74%.

Turning to `O=C(O)c1cc(-c2sc(-c3ccncc3)nc2Cc2ccc(Cl)cc2)[nH]n1` [Compound 262, 5-(4-(4-chlorobenzyl)-2-(pyridin-4-yl)thiazol-5-yl)-1H-pyrazole-3-carboxylic acid], the inhibition at 1 µM was 4% on Human PI3K gamma and 12% on Human PI3K delta. Further, the inhibition at 1.1 µM worked out at 0% at Human PI3K alpha and 69% at Human PI3K beta.

On to `OC(c1cnc2ccccc2n1)c1cc(-c2ccncc2)sc1-c1nnc[nH]1` (centres unmarked) [Compound 263], for which the inhibition at 1 µM at Human PI3K gamma worked out at 43%; at Human PI3K delta it was 84%. The inhibition at 1.1 µM on Human PI3K alpha came out at 48%; on Human PI3K beta, 105%.

In the case of `COc1ccc(C(O)c2cc(-c3ccncc3)sc2-c2nnc[nH]2)c(F)c1` (centres unmarked) [Compound 264], the inhibition at 1 µM came to 28% on Human PI3K gamma and 100% at Human PI3K delta. In addition, the inhibition at 1.1 µM at Human PI3K alpha is 32%; at Human PI3K beta, 99%.

Regarding `COc1cc(C(O)c2cc(-c3ccnc(C)c3)sc2-c2nnc[nH]2)c(F)cc1Cl` (centres unmarked) [Compound 265], at Human PI3K gamma, the “p110 gamma Percent Inhibition” value stood at 64%. Moreover, the “p110 alpha Percent Inhibition” value at Human PI3K alpha was 64%. In addition, the “p110 beta Percent Inhibition” value at Human PI3K beta came out at 109%. The “p110 delta Percent Inhibition” value on Human PI3K delta is on record as 111%.

Regarding `OC(c1cc(F)ccc1F)c1cc(-c2ccncc2)sc1-c1nnc[nH]1` (centres unmarked) [Compound 266], the inhibition at 1 µM at Human PI3K gamma came to 8%; at Human PI3K delta, 52%. Besides, the inhibition at 1.1 µM on Human PI3K alpha was determined as 36%; on Human PI3K beta, 90%.

As to `CC(=O)Nc1cc(-c2cc(C(c3ccc(Cl)cc3)N3CCN(C)CC3)c(-c3nnc[nH]3)s2)ccn1` (centres unmarked) [Compound 267], the values for the inhibition at 1 µM at Human PI3K gamma and at Human PI3K delta were 43% and 111%, respectively. For the same compound, the inhibition at 1.1 µM on Human PI3K alpha was found to be 100%; on Human PI3K beta, 113%.

Regarding `CC(=O)Nc1cc(-c2cc(C(c3ccc(Cl)cc3)N3CCC[C@@H]3CO)c(-c3nnc[nH]3)s2)ccn1` (some centres unmarked) [Compound 268], the inhibition at 1 µM was 16% on Human PI3K gamma and 102% on Human PI3K delta. The inhibition at 1.1 µM on Human PI3K alpha was determined as 82%; at Human PI3K beta, 95%.

Regarding `CC(=O)Nc1cc(-c2cc(C(c3ccc(Cl)cc3)N3CC[C@H](CO)C3)c(-c3nnc[nH]3)s2)ccn1` (some centres unmarked) [Compound 269], the inhibition at 1 µM on Human PI3K gamma came out at 15%; at Human PI3K delta, 101%. The inhibition at 1.1 µM on Human PI3K alpha came out at 72%; on Human PI3K beta it was 100%.
